The nature of series [1]: Dye stabilization in gels: GelStar-prestained agarose gels with additives, 6 days at 45° C., intensity of a 2.5 ng DNA band. The series is classed as physicochemical. Particulars: GelStar in gel, 6 days in the dark. How it is done: SeaKem LE agarose gels (1% w/v, BMA Inc) were cast in 1×TAPS buffer (3-(N-tris(hydroxymethyl)methylamino)-propanesulfonic acid, 40 mM) in the presence of 1×GelStar nucleic acid stain (BMA Inc) and additives indicated in Table 1. Gels were incubated in the dark for 6 days at 45° C., and tested for the detection of DNA as follows: Gels were submerged in 1×TAPS electrophoresis buffer without dye. Then DNA was electrophoresed through the gel at 20 V/cm for one hour. The intensity of a 2.5 ng DNA band was examined by transillumination at 300 nm. The stain in the gel was considered stabilized if the fluorescence intensity of the DNA was more than 80% compared to when the gel was freshly prepared with stain. […] The quality of DNA resolution in fresh gels were recorded as “Good” when the DNA band was sharp, “Fair” when the DNA band was broad, and “Poor” when the DNA band was fuzzy.

Series [2] in a line: Dyes that are stabilized by the additive TPABr: t½ in 1xTAPS buffer. Particulars: 1xTAPS pH 8.2, with or without 14.6 mM TPABr; transillumination at 300 nm.
For series [3] the following is noted: buffer, pH 8.2.
A short description of series [4]: Dye stabilization in solution: t½ of fluorescence intensity with lambda DNA. The settings on record: Table 3.

Regarding `CCCC[N+](CCCC)(CCCC)CCCC.[OH-]` [Tetrabutylammonium hydroxide (TBAOH), Tetrabutylammonium hydroxide], the “Dye stabilization at 45° C.” value in series [1] (additive 14.6 mM) is listed as “Yes (The stain in the gel was considered stabilized if the fluorescence intensity of the DNA was more than 80% compared to when the gel was freshly prepared with stain)”. Regarding Tween-20, the “Dye stabilization at 45° C.” value in series [1] (additive 0.1% (v/v)) is “No”.

With `CCCCC[N+](CCCCC)(CCCCC)CCCCC.[OH-]` [TPAOH, Tetrapentylammonium hydroxide], the “Dye stabilization at 45° C.” value in series [1] (additive 7.3 mM) and in series [1] (additive 14.6 mM) was “Yes (The stain in the gel was considered stabilized if the fluorescence intensity of the DNA was more than 80% compared to when the gel was freshly prepared with stain)” each time. Consider `CC[n+]1c(-c2ccccc2)c2cc(N)ccc2c2ccc(N)cc21` [ethidium bromide], for which the “effect of TPABr on the stability” value in series [2] was “marginal”. For `CN1CCN(c2ccc3[nH]c(-c4ccc5[nH]c(-c6ccc(O)cc6)nc5c4)nc3c2)CC1` [Hoechst 33258, Hoechst 33258 pentahydrate (bis-benzimide: BisBnz], the “effect of TPABr on the stability” value in series [2] is “marginal”. For `CCCCCCCCCCCC[N+](C)(C)C.[Br-]` [Dodecyltrimethylammonium bromide], the “Dye stabilization at 45° C.” value in series [1] (additive 28 mM) was “No”. As to `CCCN(CCCN(C)C)c1cc(/C=C2/Sc3ccccc3N2C)c2ccccc2[n+]1-c1ccccc1` [SYBR Green I], in series [3], the “t½ with TPABr” value is reported as “over 100 days” and the “t½ without TPABr” value was determined as 120 h. The “increase of half-life by tetramethylammonium hydroxide alone” value in series [4] is 4 fold.

The values above are taken from US6365341B1, “Stabilization of highly sensitive nucleic acid stains in aqueous solutions” (priority 2000, dated 2002).
